IC50 data for five compounds are collected here from patent US20260176260A1, “DUAL RAF AND TUBULIN INHIBITORS AND METHODS OF USE THEREOF” (Deciphera Pharmaceuticals, LLC, priority 2023, published 2026).

Each structure is given as a SMILES string. Read-outs that look alike come from different tables or passages of the source.

One experiment has as its system HPAF-II cells. Kind of experiment: HPAF-II cell proliferation assay (resazurin). It counts as cell-based. As to conditions: read-out: HPAF-II. Put shortly:
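Serial compound dilutions in triplicate with 750 cells/well in complete MEM with 10% FBS, 115 to 120 h at 37° C, 5% CO2. Resazurin then added for 18 to 24 h; fluorescence at ex 540/em 600 nm used to derive IC50.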

A further experiment has as its target T1, C-Raf kinase (Homo sapiens, UniProt P04049, Y340D/Y341D).
T1 construct: C-Raf residues 306-end; Y340D, Y341D with N-; purchased Sigma
Kind of experiment: Biochemical assay for C-Raf (coupled pyruvate kinase/lactate dehydrogenase). As to conditions: read-out: CRAF.

A further experiment deals with T2, B-Raf kinase (Homo sapiens, UniProt P15056).
T2 construct: purchased Sigma
T2 sequence (P15056 416-766): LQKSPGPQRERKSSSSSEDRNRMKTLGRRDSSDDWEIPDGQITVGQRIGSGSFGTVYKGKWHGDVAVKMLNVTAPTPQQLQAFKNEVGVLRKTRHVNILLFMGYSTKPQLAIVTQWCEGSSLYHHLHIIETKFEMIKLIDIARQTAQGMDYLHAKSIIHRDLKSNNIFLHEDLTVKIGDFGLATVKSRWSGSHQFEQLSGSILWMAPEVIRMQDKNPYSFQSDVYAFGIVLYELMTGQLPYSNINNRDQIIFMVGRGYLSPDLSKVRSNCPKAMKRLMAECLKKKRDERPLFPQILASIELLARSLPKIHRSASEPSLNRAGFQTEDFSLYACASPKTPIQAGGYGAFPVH
Kind of experiment: Biochemical assay for B-Raf (coupled pyruvate kinase/lactate dehydrogenase). As to conditions: read-out: BRAF.

A further experiment concerns HCT-116 cells. Kind of experiment: HCT-116 cell proliferation assay (resazurin). In kind it is cell-based. As to conditions: read-out: HCT-116. The method in brief: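 HCT-116 cells, 375 per well in McCoy's 5A with 10% FBS, exposed to serially diluted compound in triplicate for 67-72 h at 37 °C. Resazurin added for 4-5 h more; fluorescence (ex 540/em 600 nm) fitted to IC50.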

A further experiment has as its system Pa16c cells. Kind of experiment: Pa16c cell proliferation assay (resazurin). In kind it is cell-based. As to conditions: Table 2, inhibition of cell proliferation. The method in brief:
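Pa16c cells, 750 per well in DMEM with 10% FBS, exposed to serially diluted compound in triplicate for 67-72 h at 37 °C. Resazurin then added for a further 18-24 h, fluorescence read at Ex 540/Em 600 nm, and IC50 calculated.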

The test system of experiment [1] is tubulin polymerization in HCT-116 cells. Kind of experiment: Cellular tubulin polymerization assay (pellet/supernatant a-tubulin, HCT-116 cells). In kind it is cell-based. As to conditions: Table 3, HCT-116 cells; read-out: Tubulin Cellular. Here is the method: HCT-116 cells (catalog #CCL-247) are obtained from the American Type Culture Collect (ATCC, Manassas, VA). Briefly, cells are grown in McCoy's 5A supplemented with 10% characterized fetal bovine serum (Invitrogen, Carlsbad, CA) and 1% Penicillin/Streptomycin/L-Glutamine at 37° C., 5% CO2, and 95% humidity. Cells are expanded until reaching 70-95% confluency at which point they are sub-cultured or harvested for assay use. 450000 cells are added per well in 1500 μL complete growth medium in a tissue culture treated, 12-well plate. Plates are incubated for 18 to 24 h at 37° C., 5% CO2, and 95% humidity. At the end of the incubation, 2000 μL of base culture media is added to each well, followed by a serial dilution of compound. Plates are incubated for an additional 1 h at 37° C., 5% CO2, and 95% humidity. Lysates are generated by the addition of 100 μL Lysis and Microtubule Stabilization Buffer 1 (LMS01, Cytoskeleton Inc, Denver, CO) supplemented with GTP (BST06, Cytoskeleton Inc), ATP (BSA04, Cytoskeleton Inc), and Protease Inhibitor Cocktail Stock (PIC02, Cytoskeleton Inc). Cells are scraped off wells using a rubber cell scraper and collected in a clean 96-well plate. Lysates are centrifuged at 1000×g, 37° C. for 10 min and supernatant fraction is placed into an additional 96-well plate. The remaining pellet fraction is reconstituted in 100 μL LMS01 buffer and sonicated for 10 min. Pellet and Supernatant fractions are probed for a-tubulin via western blot analysis on the Jess System or equivalent (Bio-techne, Minneapolis, MN). Data is analyzed using Prism software (Graphpad, San Diego, CA) to calculate IC50 values.

Setting [2] is: Homo sapiens, Table 2, inhibition of cell proliferation.
[3] abbreviates: Table 1, inhibition of biochemical activity.

T1 sequence (P04049 307-648 Y340D/Y341D): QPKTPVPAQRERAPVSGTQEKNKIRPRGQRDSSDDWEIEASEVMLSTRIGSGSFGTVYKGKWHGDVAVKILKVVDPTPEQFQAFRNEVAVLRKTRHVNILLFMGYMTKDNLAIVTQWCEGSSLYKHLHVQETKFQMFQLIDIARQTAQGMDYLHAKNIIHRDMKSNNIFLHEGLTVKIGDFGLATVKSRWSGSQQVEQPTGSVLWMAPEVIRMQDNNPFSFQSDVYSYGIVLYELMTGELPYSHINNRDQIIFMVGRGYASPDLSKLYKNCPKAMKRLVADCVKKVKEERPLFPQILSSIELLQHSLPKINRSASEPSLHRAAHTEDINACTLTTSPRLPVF

As to `CNC(=O)c1cc(-c2cc(-c3cc(NC(=O)c4cc(C(F)(F)F)cnn4)ccc3C)cc(C)n2)ccn1` [Example 2, N,6-dimethyl-4-(2-methyl-5-(5-(trifluoromethyl)pyridazine-3-carboxamido)phenyl)-[2,4′-bipyridine]-2′-carboxamide], the IC50 in the experiment on HPAF-II cells (setting [2]) was 500 to 1000 nM; with HPAF-II cells (Table 3), 500 to 1000 nM; at C-Raf kinase (setting [3]), below 100 nM; on C-Raf kinase (Table 3), below 100 nM; on B-Raf kinase (setting [3]), 100 to 500 nM; at B-Raf kinase (Table 3) it was 100 to 500 nM. Further, the IC50 lay in the range of 500 to 1000 nM with HCT-116 cells (setting [2]), 500 to 1000 nM in the experiment with HCT-116 cells (Table 3), 500 to 1000 nM in the experiment with Pa16c cells and 100 to 500 nM in experiment [1].
On to `CNC(=O)c1cc(-c2cc(-c3cc(NC(=O)c4cc(C(F)(F)F)cnn4)ccc3C)ccn2)ccn1` [Example 9], for which the IC50 in the experiment with HPAF-II cells (setting [2]) was 100 to 500 nM; with HPAF-II cells (Table 3), 100 to 500 nM; on C-Raf kinase (setting [3]), below 100 nM; on C-Raf kinase (Table 3), below 100 nM; at B-Raf kinase (setting [3]), below 100 nM; at B-Raf kinase (Table 3) it was below 100 nM. Further, the IC50 (in the experiment on HCT-116 cells (setting [2]); with HCT-116 cells (Table 3); with Pa16c cells; in experiment [1]) was 100 to 500 nM each time.
Consider `CNC(=O)c1cc(-c2cc(-c3cc(NC(=O)c4cc(C(F)(F)F)cnn4)ccc3C)cc(NCCO)n2)ccn1` [Example 18], for which the IC50 in the experiment on HPAF-II cells (setting [2]) is 100 to 500 nM; in the experiment with HPAF-II cells (Table 3) it was 100 to 500 nM; on C-Raf kinase (setting [3]), below 100 nM; at C-Raf kinase (Table 3), below 100 nM; at B-Raf kinase (setting [3]), below 100 nM; at B-Raf kinase (Table 3) it was below 100 nM. Moreover, the IC50 (in the experiment with HCT-116 cells (setting [2]); in the experiment on HCT-116 cells (Table 3); in the experiment on Pa16c cells; in experiment [1]) was below 100 nM throughout.
`CNC(=O)c1cc(-c2cc(-c3cc(NC(=O)c4cc(C5CC5)cnn4)ccc3C)ccn2)ccn1` [Example 26]: the IC50 in the experiment on HPAF-II cells (setting [2]) is 100 to 500 nM; with HPAF-II cells (Table 3), 100 to 500 nM; at C-Raf kinase (setting [3]), below 100 nM; at C-Raf kinase (Table 3) it was below 100 nM; at B-Raf kinase (setting [3]), below 100 nM; at B-Raf kinase (Table 3), below 100 nM. The IC50 (in the experiment with HCT-116 cells (setting [2]); in the experiment on HCT-116 cells (Table 3); in the experiment with Pa16c cells; in experiment [1]) was 100 to 500 nM each time.
Turning to `CNC(=O)c1cc(-c2cc(-c3cc(NC(=O)c4cc(C5CC5)cnn4)ccc3C)cc(NCCO)n2)ccn1` [Example 27], the IC50 in the experiment with HPAF-II cells (setting [2]) was 100 to 500 nM; in the experiment with HPAF-II cells (Table 3), 100 to 500 nM; on C-Raf kinase (setting [3]), below 100 nM; at C-Raf kinase (Table 3), below 100 nM; on B-Raf kinase (setting [3]) it was below 100 nM; at B-Raf kinase (Table 3) it was below 100 nM. Moreover, the IC50 with HCT-116 cells (setting [2]) was below 100 nM; in the experiment on HCT-116 cells (Table 3), below 100 nM; in the experiment on Pa16c cells, below 100 nM; in experiment [1] it was 100 to 500 nM.
